The record followed here is PubChem BioAssay AID1259411 (Chemical Carcinogenesis Research Information System (CCRIS), 2018).

Active and inactive are the calls of the source. How the calls were made is not given here.

For the data set, the system named is rodent carcinogenicity bioassays, tumor incidence. The data set is described as follows: CCRIS carcinogenicity studies. Summed up:
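Archive of carcinogenicity, mutagenicity, tumor promotion and tumor inhibition results drawn from journals, NCI reports and other sources, expert-reviewed; covers 1985-2011 and is no longer updated.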

With `O=C(O)C(Cl)Cl`, the carcinogen call (Species: MOUSE, Strain/Sex: B6C3F1/FEMALE, Route: ORAL, Dose: 0, 2, 6.67, 20 MMOL/L IN DRINKING WATER FOR 360 D (STUDY DURATION: 360 D), Dose: 0, 2, 6.67, 20 MMOL/L IN DRINKING WATER FOR 360 D (STUDY DURATION: 360 D), Tumor Site: Type of Lesion: LIVER: ADENOMA) was “active; positive”; the carcinogen call (Species: MOUSE, Strain/Sex: B6C3F1/FEMALE, Route: ORAL, Dose: 0, 2, 6.67, 20 MMOL/L IN DRINKING WATER FOR 576 D (STUDY DURATION: 576 D), Dose: 0, 2, 6.67, 20 MMOL/L IN DRINKING WATER FOR 576 D (STUDY DURATION: 576 D), Tumor Site: Type of Lesion: LIVER: ADENOMA, CARCINOMA) was “active; positive”; the carcinogen call (Species: MOUSE, Strain/Sex: B6C3F1/FEMALE, Route: ORAL, Dose: 0, 2 G/L (TOTAL DOSE) IN DRINKING WATER FOR 52 WK (STUDY DURATION: 52 WK)) was “inactive; negative”; the carcinogen call (Species: MOUSE, Strain/Sex: B6C3F1/FEMALE, Route: ORAL, Dose: 0, 20 MMOL/L IN DRINKING WATER FOR 24 D FOLLOWED BY 48 D WITHOUT EXPOSURE THIS 72-DAY CYCLE REPEATED FOR THE DURATION OF) was “inactive; negative”; the carcinogen call (Species: MOUSE, Strain/Sex: B6C3F1/MALE, Route: ORAL, Dose: 0, 0.5, 1.0, 2, 3.5 G/L IN DRINKING WATER FOR 26 WK (STUDY DURATION: 26 WK), Dose: 0, 0.5, 1.0, 2, 3.5 G/L IN DRINKING WATER FOR 26 WK (STUDY DURATION: 26 WK)) is “inactive; negative”; the carcinogen call (Species: MOUSE, Strain/Sex: B6C3F1/MALE, Route: ORAL, Dose: 0, 0.5, 1.0, 2, 3.5 G/L IN DRINKING WATER FOR 52 WK (STUDY DURATION: 52 WK), Dose: 0, 0.5, 1.0, 2, 3.5 G/L IN DRINKING WATER FOR 52 WK (STUDY DURATION: 52 WK), Tumor Site: Type of Lesion: LIVER: HEPATOCELLULAR ADENOMA OR CARCINOMA) was “active; positive”. The carcinogen call (Species: MOUSE, Strain/Sex: B6C3F1/MALE, Route: ORAL, Dose: 0, 0.5, 1.0, 2, 3.5 G/L IN DRINKING WATER FOR 78 WK (STUDY DURATION: 78 WK), Dose: 0, 0.5, 1.0, 2, 3.5 G/L IN DRINKING WATER FOR 78 WK (STUDY DURATION: 78 WK), Tumor Site: Type of Lesion: LIVER: HEPATOCELLULAR ADENOMA OR CARCINOMA) was “active; positive”; the carcinogen call (Species: MOUSE, Strain/Sex: B6C3F1/MALE, Route: ORAL, Dose: 0, 0.5, 1.0, 2, 3.5 G/L IN DRINKING WATER FOR 100 WK (STUDY DURATION: 100 WK), Dose: 0, 0.5, 1.0, 2, 3.5 G/L IN DRINKING WATER FOR 100 WK (STUDY DURATION: 100 WK), Tumor Site: Type of Lesion: LIVER: HEPATOCELLULAR ADENOMA OR CARCINOMA) is “active; positive”; the carcinogen call (Species: MOUSE, Strain/Sex: B6C3F1/MALE, Route: ORAL, Dose: 0, 0.5 G/L DISTILLED DRINKING WATER FOR STUDY DURATION (93 MG/KG/D) (STUDY DURATION: 104 WK), Tumor Site: Type of Lesion: LIVER: HEPATOCELLULAR CARCINOMA, HEPATOCELLULAR ADENOMA) was “active; positive”; the carcinogen call (Species: MOUSE, Strain/Sex: B6C3F1/MALE, Route: ORAL, Dose: 0, 1, 2 G/L IN DRINKING WATER FOR 52 WK (STUDY DURATION: 52 WK), Dose: 0, 1, 2 G/L IN DRINKING WATER FOR 52 WK (STUDY DURATION: 52 WK), Tumor Site: Type of Lesion: LIVER: ADENOMA OR HEPATOCELLULAR CARCINOMA) was “active; positive”; the carcinogen call (Species: MOUSE, Strain/Sex: B6C3F1/MALE, Route: ORAL, Dose: 0, 1 G, 2 G/L (TOTAL DOSE) IN DRINKING WATER FOR 52 WK (STUDY DURATION: 52 WK), Dose: 0, 1 G, 2 G/L (TOTAL DOSE) IN DRINKING WATER FOR 52 WK (STUDY DURATION: 52 WK), Tumor Site: Type of Lesion: LIVER: HEPATOCELLULAR CARCINOMA, ADENOMA, HYPERPLASTIC NODULES) was “active; positive”; the carcinogen call (Species: MOUSE, Strain/Sex: B6C3F1/MALE, Route: ORAL, Dose: 0, 2 G/L (TOTAL DOSE) IN DRINKING WATER FOR 37 WK (STUDY DURATION: 52 WK), Tumor Site: Type of Lesion: LIVER: ADENOMA, HYPERPLASTIC NODULES) is “active; positive”. For the same compound, the carcinogen call runs as follows: (Species: MOUSE, Strain/Sex: B6C3F1/MALE, Route: ORAL, Dose: 0, 5 G/L (0; 39 MILLIMOLAR) IN DRINKING WATER FOR 61 WK (STUDY DURATION: 61 WK), Dose: 0, 5 G/L (0; 39 MILLIMOLAR) IN DRINKING WATER FOR 61 WK (STUDY DURATION: 61 WK), Tumor Site: Type of Lesion: LIVER: CARCINOMA) “active; positive”; (Species: RAT, Strain/Sex: F344/MALE, Route: ORAL, Dose: 0, 0.05, 0.5 G/L IN DRINKING WATER FOR 100 WK (STUDY DURATION: 100 WK), Dose: 0, 0.05, 0.5 G/L IN DRINKING WATER FOR 100 WK (STUDY DURATION: 100 WK), Tumor Site: Type of Lesion: LIVER: HEPATOCELLULAR ADENOMA OR CARCINOMA) “active; positive”; (Species: RAT, Strain/Sex: F344/MALE, Route: ORAL, Dose: 0, 2.5 G/L IN DRINKING WATER DOSE LOWERED TO 1 G/L AFTER 18 WK (STUDY DURATION: 103 WK), Tumor Site: Type of Lesion: LIVER: HEPATOCELLULAR ADENOMA OR CARCINOMA) “active; positive”.

In the case of `NC(=O)Cc1c([O-])on[n+]1Cc1ccccc1`, the carcinogen call is “active; positive” (Species: MOUSE, Strain/Sex: DDD/FEMALE, Route: ORAL, Dose: 0, 0.002, 0.01, 0.02% IN DRINKING WATER FOR 12 MO (STUDY DURATION: 12 MO), Dose: 0, 0.002, 0.01, 0.02% IN DRINKING WATER FOR 12 MO (STUDY DURATION: 12 MO), Tumor Site: Type of Lesion: LIVER: HEPATOCELLULAR CARCINOMA); “inactive; negative” (Species: MOUSE, Strain/Sex: DDD/MALE, Route: ORAL, Dose: 0, 0.02% IN DRINKING WATER FOR 12 MO (STUDY DURATION: 12 MO)); “active; positive” (Species: RAT, Strain/Sex: DONRYU/FEMALE, Route: ORAL, Dose: 0, 60, 200, 400 PPM IN DRINKING WATER FOR 41 WK (STUDY DURATION: 104 WK), Dose: 0, 60, 200, 400 PPM IN DRINKING WATER FOR 41 WK (STUDY DURATION: 104 WK), Tumor Site: Type of Lesion: LIVER: TUMOR); “inactive; negative” (Species: RAT, Strain/Sex: DONRYU/MALE, Route: ORAL, Dose: 0, 20 PPM IN DIET FOR 104 WK (STUDY DURATION: 104 WK)); “active; positive” (Species: RAT, Strain/Sex: DONRYU/MALE, Route: ORAL, Dose: 0, 60, 200 PPM IN DIET FOR 15 WK (STUDY DURATION: 104 WK), Dose: 0, 60, 200 PPM IN DIET FOR 15 WK (STUDY DURATION: 104 WK), Tumor Site: Type of Lesion: LIVER: TUMOR); “active; positive” (Species: RAT, Strain/Sex: DONRYU/MALE, Route: ORAL, Dose: 0, 60 PPM IN DRINKING WATER FOR 41 WK (STUDY DURATION: 104 WK), Tumor Site: Type of Lesion: LIVER: TUMOR).

Turning to `O=[N+]([O-])c1ccc2c(c1)Cc1cc([N+](=O)[O-])ccc1-2`, the carcinogen call reads like this: (Species: Rat, Strain/Sex: Sprague-Dawley/Female (16/group), Route: Intraperitoneal, Dose: 10 umol/kg 3 times a wk for 4 wk (avg total dose 16.0 umol/rat), animals retained for up to 90 wk after last dosing (Tes, Tumor Site: Type of Lesion: Mammary Gland: % of rats with tumors (malignant 44, benign 38 vs 6 malignant, 53 benign in vehicle controls)) “active; positive for malignant tumors only (p=0.02). dna adducts observed in mammary gla”; (Species: Rat, Strain/Sex: Sprague-Dawley/Female (17/group), Route: Oral, Dose: 10 umol/kg 3 times a wk for 4 wk (avg total dose 18.0 umol/rat), animals retained for up to 90 wk after last dosing (Tes, Tumor Site: Type of Lesion: Mammary Gland: % of rats with tumors (malignant 29, benign 53 vs 12 malignant, 53 benign in vehicle controls)) “inactive; negative. dna adducts observed in mammary gland dna collected 24 hr after last d”.

As for `CC(N)Cc1ccccc1` (configuration not stated), the carcinogen call was “inactive; negative” (Species: MOUSE, Strain/Sex: B6C3F1/FEMALE, Route: ORAL, Dose: 0, 20, 100 PPM IN DIET FOR 103 WK (STUDY DURATION: 105 WK), Dose: 0, 20, 100 PPM IN DIET FOR 103 WK (STUDY DURATION: 105 WK)); “inactive; negative” (Species: MOUSE, Strain/Sex: B6C3F1/MALE, Route: ORAL, Dose: 0, 20, 100 PPM IN DIET FOR 103 WK (STUDY DURATION: 105 WK), Dose: 0, 20, 100 PPM IN DIET FOR 103 WK (STUDY DURATION: 105 WK)); “inactive; negative” (Species: RAT, Strain/Sex: F344/FEMALE, Route: ORAL, Dose: 0, 20, 100 PPM IN DIET FOR 103 WK (STUDY DURATION: 105 WK), Dose: 0, 20, 100 PPM IN DIET FOR 103 WK (STUDY DURATION: 105 WK)); “inactive; negative” (Species: RAT, Strain/Sex: F344/MALE, Route: ORAL, Dose: 0, 20, 100 PPM IN DIET FOR 103 WK (STUDY DURATION: 105 WK), Dose: 0, 20, 100 PPM IN DIET FOR 103 WK (STUDY DURATION: 105 WK)).
